# Data: PubChem BioAssay AID330 (DTP/NCI, 2004)
# Several values for one entry are separate records, joined by “and”; a condition that tells them apart may be missing. Identical values can stand only once. Inconclusive results and toxic doses are left out.
# System: P388 leukemia ip, CD2F1 mice, survival T/C
# Assay: NCI In Vivo Anticancer Drug Screen. Data for tumor model P388 Leukemia (intraperitoneal) in CD2F1 (CDF1) mice
# Conditions: endpoint: median survival time, higher = longer survival
# How it was run: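 Mice carrying the transplanted tumor received test compound or vehicle. Survival was recorded in each group, and the value is the treated-group measurement divided by that of the vehicle-treated control group.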
# [1] = dose: 25.0 mg/kg/injection, schedule: Q01DX009 (ip), vehicle: Klucel (hydroxypropylcellulose) (HPC)
# [2] = dose: 50.0 mg/kg/injection, schedule: Q01DX009 (ip), vehicle: Klucel (hydroxypropylcellulose) (HPC)
# [3] = dose: 100.0 mg/kg/injection, schedule: Q01DX009 (ip), vehicle: Klucel (hydroxypropylcellulose) (HPC)
# [4] = dose: 200.0 mg/kg/injection, schedule: Q01DX009 (ip), vehicle: Klucel (hydroxypropylcellulose) (HPC)
# [5] = dose: 60.0 mg/kg/injection, schedule: Q01DX005 (ip), vehicle: saline with Tween-80
# [6] = dose: 120.0 mg/kg/injection, schedule: Q01DX005 (ip), vehicle: saline with Tween-80
# [7] = dose: 25.0 mg/kg/injection, schedule: Q01DX009 (ip), vehicle: saline with Tween-80
# [8] = dose: 50.0 mg/kg/injection, schedule: Q01DX009 (ip), vehicle: saline with Tween-80
# [9] = dose: 100.0 mg/kg/injection, schedule: Q01DX009 (ip), vehicle: saline with Tween-80
# [10] = dose: 200.0 mg/kg/injection, schedule: Q01DX009 (ip), vehicle: saline with Tween-80
# [11] = dose: 50.0 mg/kg/injection, schedule: Q01DX005 (ip), vehicle: saline
# [12] = dose: 100.0 mg/kg/injection, schedule: Q01DX005 (ip), vehicle: saline
# [13] = dose: 200.0 mg/kg/injection, schedule: Q01DX005 (ip), vehicle: saline
structure (smiles),measurement,setting,value
CC(C)=CCC1(O)C(=O)c2ccccc2C1(O)C(=O)O (centres undefined),T/C,[1],101 % of control
same,T/C,[2],100 % of control
same,T/C,[3],107 % of control
same,T/C,[4],99 % of control
O=S(=O)(NN=C(c1ccccc1)c1ccccc1)c1ccccc1,T/C,[1],99 % of control
same,T/C,[2],93 % of control
same,T/C,[3],101 % of control
same,T/C,[4],106 % of control
same,T/C,"dose: 400.0 mg/kg/injection, schedule: Q01DX009 (ip), vehicle: Klucel (hydroxypropylcellulose) (HPC)",90 % of control
Cc1ccn2c(=O)c(Br)c(C)nc2c1,T/C,"dose: 100.0 mg/kg/injection, schedule: Q01DX001 (ip), vehicle: saline with Tween-80",92 % of control
same,T/C,"dose: 200.0 mg/kg/injection, schedule: Q01DX001 (ip), vehicle: saline with Tween-80",94 % of control
same,T/C,"dose: 400.0 mg/kg/injection, schedule: Q01DX001 (ip), vehicle: saline with Tween-80",97 % of control
COc1cc(Cc2n[nH]c(=S)n2-c2ccccc2)c(S(=O)(=O)N2CCOCC2)cc1OC,T/C,"dose: 60.0 mg/kg/injection, schedule: Q01DX005 (ip), vehicle: saline",102 % of control
same,T/C,"dose: 120.0 mg/kg/injection, schedule: Q01DX005 (ip), vehicle: saline",95 % of control
same,T/C,"dose: 240.0 mg/kg/injection, schedule: Q01DX005 (ip), vehicle: saline",95 % of control
CC(C(C(=O)N1CCCCC1)N1CCCCC1)N1CCCCC1 (centres undefined),T/C,"dose: 100.0 mg/kg/injection, schedule: Q01DX009 (ip), vehicle: saline",99 % of control
same,T/C,"dose: 200.0 mg/kg/injection, schedule: Q01DX009 (ip), vehicle: saline",87 % of control
same,T/C,"dose: 400.0 mg/kg/injection, schedule: Q01DX009 (ip), vehicle: saline",97 % of control
CC1(C)CC(C)(C)c2c1oc(=O)c1c3c(oc(=O)c21)C(C)(C)CC3(C)C,T/C,"dose: 3.12 mg/kg/injection, schedule: Q01DX005 (ip), vehicle: Klucel (hydroxypropylcellulose) (HPC)",96 % of control
same,T/C,"dose: 6.25 mg/kg/injection, schedule: Q01DX005 (ip), vehicle: Klucel (hydroxypropylcellulose) (HPC)",100 % of control
same,T/C,"dose: 12.5 mg/kg/injection, schedule: Q01DX005 (ip), vehicle: Klucel (hydroxypropylcellulose) (HPC)",87 % of control
same,T/C,"dose: 25.0 mg/kg/injection, schedule: Q01DX005 (ip), vehicle: Klucel (hydroxypropylcellulose) (HPC)",87 % of control and 90 % of control
same,T/C,"dose: 100.0 mg/kg/injection, schedule: Q01DX005 (ip), vehicle: Klucel (hydroxypropylcellulose) (HPC)",90 % of control and 91 % of control
CCc1cccc(CC)c1NC(=O)NN(CC)CC,T/C,[5],93 % of control
same,T/C,[6],103 % of control
CC(C)(C)c1cc(C=O)cc(C(C)(C)C)c1O,T/C,[7],99 % of control
same,T/C,[8],100 % of control
same,T/C,[9],96 % of control
same,T/C,[10],91 % of control
NC(=S)C1OC(COC(=O)c2ccccc2)C(OC(=O)c2ccccc2)C1OC(=O)c1ccccc1 (centres undefined),T/C,[8],96 % of control
same,T/C,[9],94 % of control
same,T/C,[10],102 % of control
CC1=C(C#N)C(C)(C)C(C#N)=C(C)N1,T/C,"dose: 12.5 mg/kg/injection, schedule: Q01DX009 (ip), vehicle: other",108 % of control
same,T/C,"dose: 25.0 mg/kg/injection, schedule: Q01DX009 (ip), vehicle: other",106 % of control
same,T/C,"dose: 50.0 mg/kg/injection, schedule: Q01DX009 (ip), vehicle: other",92 % of control
COC1OCC(N=[N+]=[N-])C(O)C1O (centres undefined),T/C,"dose: 25.0 mg/kg/injection, schedule: Q01DX005 (ip), vehicle: saline",98 % of control
same,T/C,[11],102 % of control
same,T/C,[12],100 % of control
same,T/C,[13],102 % of control
CCOCC(=O)[C@]1(O)Cc2c(O)c3c(c(O)c2[C@@H](OC2CC(N)C(O)C(C)O2)C1)C(=O)c1c(OC)cccc1C3=O (some centres undefined),T/C,"dose: 1.56 mg/kg/injection, schedule: Q01DX009 (ip), vehicle: water",153 % of control
same,T/C,"dose: 3.13 mg/kg/injection, schedule: Q01DX009 (ip), vehicle: water",158 % of control and 163 % of control
CCOC(=O)C(=O)C(C(=O)c1ccccn1)c1nc2n(c1O)C(=N)N=N2 (centres undefined),T/C,"dose: 50.0 mg/kg/injection, schedule: Q01DX005 (ip), vehicle: saline with Tween-80",102 % of control
same,T/C,"dose: 100.0 mg/kg/injection, schedule: Q01DX005 (ip), vehicle: saline with Tween-80",94 % of control
same,T/C,"dose: 200.0 mg/kg/injection, schedule: Q01DX005 (ip), vehicle: saline with Tween-80",87 % of control
COC(=O)C1CCc2c(cnn2-c2ccccn2)C1 (centres undefined),T/C,[8],97 % of control
same,T/C,[9],101 % of control
same,T/C,[10],100 % of control
c1ccc2c(CC3=NCCN3)noc2c1,T/C,"dose: 12.5 mg/kg/injection, schedule: Q01DX009 (ip), vehicle: saline",98 % of control
same,T/C,"dose: 25.0 mg/kg/injection, schedule: Q01DX009 (ip), vehicle: saline",105 % of control
same,T/C,"dose: 50.0 mg/kg/injection, schedule: Q01DX009 (ip), vehicle: saline",103 % of control and 107 % of control
O=C(CCl)N1CCN(c2ccccc2)CC1,T/C,[5],97 % of control
same,T/C,[6],100 % of control
same,T/C,"dose: 240.0 mg/kg/injection, schedule: Q01DX005 (ip), vehicle: saline with Tween-80",97 % of control
CCN(CC)CN1C(=O)C2C3C=CC(C2C1=O)C1C2C(=O)N(CN(CC)CC)C(=O)C2C31 (centres undefined),T/C,[7],103 % of control
same,T/C,[8],102 % of control and 111 % of control
same,T/C,[9],116 % of control and 117 % of control and 119 % of control
same,T/C,[10],119 % of control
same,T/C,"dose: 400.0 mg/kg/injection, schedule: Q01DX009 (ip), vehicle: saline with Tween-80",111 % of control
O=C1CN(C2CCCCC2)CC(=O)N2CCCCN12,T/C,[11],108 % of control
same,T/C,[12],105 % of control
same,T/C,[13],103 % of control
COc1ccc(N2C(=O)/C(=C/c3ccccc3)N=C2/C=C/c2ccc(Cl)cc2)cc1,T/C,"dose: 15.0 mg/kg/injection, schedule: Q01DX005 (ip), vehicle: Klucel + Tween-80",93 % of control
same,T/C,"dose: 30.0 mg/kg/injection, schedule: Q01DX005 (ip), vehicle: Klucel + Tween-80",95 % of control
same,T/C,"dose: 60.0 mg/kg/injection, schedule: Q01DX005 (ip), vehicle: Klucel + Tween-80",107 % of control and 96 % of control
